According to patent US10947271B2, “Antibacterial agents” (THE UNIVERSITY OF QUEENSLAND, priority 2014, dated 2021):

Experiments:
[1] = tested on: Staphylococcus aureus MRSA ATCC 43300; assay: MIC assay, S. aureus MRSA ATCC 43300; format: cell-based; settings: 24 h incubation, visual reading
Outline: (§1)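 MHB broth microdilution, twofold series, compounds 8–0.003 μg/ml; mid-log inoculum 5×10e5 CFU/mL; 37° C, 24 h; MIC read visually as lowest concentration without growth.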

[2] = tested on: Streptococcus pneumoniae MDR ATCC 700677; assay: MIC assay, S. pneumoniae MDR ATCC 700677; format: cell-based; settings: 24 h incubation, visual reading
Outline: as §1

[3] = tested on: Enterococcus faecium MDR Van A ATCC 51559; assay: MIC assay, E. faecium MDR Van A ATCC 51559; format: cell-based; settings: 24 h incubation, visual reading
Outline: as §1

MRSA (Strain ATCC 43300) = assay: Murine thigh infection model (MRSA); format: in vivo, Staphylococcus aureus; settings: neutropenic CD1 mice, single subcutaneous dose 10 mg/kg
Procedure: Summary: Adult (8 week old) female CD1 mice were made neutropenic by two injections of cyclophosphamide 4 days and 1 day prior to infection. An inoculum of 10^5 cfu MRSA (Strain ATCC 43300) was injected intramuscularly into both left and right thighs of all mice. […] After an additional two hours, a 50 μL sample of blood was obtained from the tail bleed to analyse for presence of antibiotic compound. […] Thighs were then removed, weighed and homogenised in a fixed volume of saline. The homogenate solution was filtered, diluted and seeded onto agar plates, which were incubated overnight at 37° C. Colony counts were used to establish the cfu in the thigh homogenates, the cfu/thigh, and the cfu/g of thigh.
Compound preparation: Cyclophosphamide monohydrate (Sigma) was dissolved in sterile saline to a concentration of 30 mg/mL. Likewise, vancomycin (Sigma) and MCC compounds were also dissolved in sterile saline to a final concentration of 60 mg/mL and 18.5 mg/mL respectively. All compounds were prepared in low binding Eppendorf tubes and kept at −20° C. until used.
In vivo experimental assay: Eight week old female outbred CD1 mice (UQBR-AIBN) were rendered neutropenic by injecting two doses of cyclophosphamide intraperitoneally 4 days (150 mg/kg) and 1 day (100 mg/kg) prior to experimental infection. The infection model using MRSA was established by intramuscular injection of 50 μL of early-log-phase bacterial MRSA suspension (around 2×10^6 cfu/mL) in saline into both thigh muscles. […] Untreated animals received equivalent volume of saline (Baxter). The mice were monitored for signs of normal behaviour (i.e. grooming, eating, drinking, sleeping, and alertness) during and following dosing. Two hours after saline/antibiotic treatment, 0.05 mL of blood was collected by tail incision. 24 hours after MRSA infection, mice were euthanized and blood collected from the heart by cardiac puncture (saline group) or by tail incision (Vancomycin and MCC compound treated groups) as outlined in FIG. 1. For each mouse, both thighs were collected aseptically by cutting the leg at the hip and knee, placed in 10 mL of cold sterile saline and the individual weight of each thigh recorded.
Preparation of injectable MRSA solution: An MRSA subculture bacterial isolate (ATCC43300) was taken from the storage at −80° C. and freshly seeded on agar plates for overnight (O/N) growth. From the O/N culture preparation, a single colony was diluted into 10-12 mL of Mueller Hinton broth (MHB) and incubated O/N at 37° C. A log-phase subculture was obtained by adding 100 μL of O/N subculture in 10 mL MHB and incubated for a further 2-3 hours. Finally, the OD600 value of the bacterial suspension was determined and the colony forming units per millilitre (cfu/mL) extrapolated. A full dilution of the bacterial cell suspension in saline was achieved by washing (3220×g for 10 min) and the OD600 in saline determined. The suspension was then diluted out accordingly in order to achieve a 2×10^6 cfu/mL solution (10^5 cfu in 50 μL/thigh).
Thus, 10 μL of the injectable MRSA suspension was diluted down to 10-1000 fold, each dilution plated out onto agar plates and incubated at 37° C. for 24 hours.
Thigh homogenates and CFU determination: Thighs were homogenized at 20,000 rpm for 15 seconds using a Polytron MR2500E using a […] probe (all Kinematica).

| Structure (SMILES) | Minimum Inhibitory Concentration (MIC) Staph. aureus ATCC43300 [1] | Minimum Inhibitory Concentration (MIC) S. pneumoniae ATCC 700677 [2] | Minimum Inhibitory Concentration (MIC) E. faecium ATCC51559 [3] | Average Reduction log Δcfu MRSA/thigh after 26 h (MRSA (Strain ATCC 43300)) |
| --- | --- | --- | --- | --- |
| CCCCCCCCC(=O)N[C@@H](CCCCN)C(=O)N[C@@H](CCCCN)C(=O)NCCNC(=O)[C@H]1NC(=O)[C@H]2NC(=O)[C@H](NC(=O)[C@@H]3NC(=O)[C@H](CC(N)=O)NC(=O)[C@H](NC(=O)[C@@H](CC(C)C)NC)[C@H](O)c4ccc(c(Cl)c4)Oc4cc3cc(c4O[C@@H]3O[C@H](CO)[C@@H](O)[C@H](O)[C@H]3O[C@H]3C[C@](C)(N)[C@H](O)[C@H](C)O3)Oc3ccc(cc3Cl)[C@H]2O)c2ccc(O)c(c2)-c2c(O)cc(O)cc21 [MCC_005165] | xxxx (xxxx = 0.01-<0.1) | xxxx (xxxx = 0.01-<0.1) | x (x = >4) | xxx (xxx = 4-6) |
| CCCCCCCCCC(=O)N[C@@H](CCCCN)C(=O)N[C@@H](CCCCN)C(=O)NCCNC(=O)[C@H]1NC(=O)[C@H]2NC(=O)[C@H](NC(=O)[C@@H]3NC(=O)[C@H](CC(N)=O)NC(=O)[C@H](NC(=O)[C@@H](CC(C)C)NC)[C@H](O)c4ccc(c(Cl)c4)Oc4cc3cc(c4O[C@@H]3O[C@H](CO)[C@@H](O)[C@H](O)[C@H]3O[C@H]3C[C@](C)(N)[C@H](O)[C@H](C)O3)Oc3ccc(cc3Cl)[C@H]2O)c2ccc(O)c(c2)-c2c(O)cc(O)cc21 [MCC_005166] | xxxx (xxxx = 0.01-<0.1) | xxxx (xxxx = 0.01-<0.1) | x (x = >4) | xxx (xxx = 4-6) |
| CCCCCCCCCC(=O)N[C@@H](CCCCN)C(=O)N[C@@H](CCCCN)C(=O)N[C@@H](CCCCN)C(=O)NCCNC(=O)[C@H]1NC(=O)[C@H]2NC(=O)[C@H](NC(=O)[C@@H]3NC(=O)[C@H](CC(N)=O)NC(=O)[C@H](NC(=O)[C@@H](CC(C)C)NC)[C@H](O)c4ccc(c(Cl)c4)Oc4cc3cc(c4O[C@@H]3O[C@H](CO)[C@@H](O)[C@H](O)[C@H]3O[C@H]3C[C@](C)(N)[C@H](O)[C@H](C)O3)Oc3ccc(cc3Cl)[C@H]2O)c2ccc(O)c(c2)-c2c(O)cc(O)cc21 [MCC_005181] | xxxxx (xxxxx = <0.01) | xxxx (xxxx = 0.01-<0.1) | xx (xx = 1-4) | xx (xx = 2-4) |
| CCCCCCCCCC(=O)N[C@@H](CCCCN)C(=O)NCCCNC(=O)[C@H]1NC(=O)[C@H]2NC(=O)[C@H](NC(=O)[C@@H]3NC(=O)[C@H](CC(N)=O)NC(=O)[C@H](NC(=O)[C@@H](CC(C)C)NC)[C@H](O)c4ccc(c(Cl)c4)Oc4cc3cc(c4O[C@@H]3O[C@H](CO)[C@@H](O)[C@H](O)[C@H]3O[C@H]3C[C@](C)(N)[C@H](O)[C@H](C)O3)Oc3ccc(cc3Cl)[C@H]2O)c2ccc(O)c(c2)-c2c(O)cc(O)cc21 [MCC_005200] | xxxx (xxxx = 0.01-<0.1) | xxxx (xxxx = 0.01-<0.1) | xx (xx = 1-4) | xx (xx = 2-4) |
| CCCCCCCCCC(=O)N[C@@H](CCCCN)C(=O)N[C@@H](CCCCN)C(=O)N[C@@H](CCCCN)C(=O)NCCCNC(=O)[C@H]1NC(=O)[C@H]2NC(=O)[C@H](NC(=O)[C@@H]3NC(=O)[C@H](CC(N)=O)NC(=O)[C@H](NC(=O)[C@@H](CC(C)C)NC)[C@H](O)c4ccc(c(Cl)c4)Oc4cc3cc(c4O[C@@H]3O[C@H](CO)[C@@H](O)[C@H](O)[C@H]3O[C@H]3C[C@](C)(N)[C@H](O)[C@H](C)O3)Oc3ccc(cc3Cl)[C@H]2O)c2ccc(O)c(c2)-c2c(O)cc(O)cc21 [MCC_005201] | xxxx (xxxx = 0.01-<0.1) | xxxx (xxxx = 0.01-<0.1) | xx (xx = 1-4) | xx (xx = 2-4) |
